From ChEMBL document CHEMBL3526061, “Glucuronidation of edaravone by human liver and kidney microsomes: biphasic kinetics and identification of UGT1A9 as the major UDP-glucuronosyltransferase isoform” (Drug Metab Dispos, 2012) come the findings set out here.

Format in all cases: ADME
The target in series [1] is T1, UDP-glucuronosyltransferase 2B17 (Homo sapiens, UniProt O75795).
T1 sequence (O75795 whole entry): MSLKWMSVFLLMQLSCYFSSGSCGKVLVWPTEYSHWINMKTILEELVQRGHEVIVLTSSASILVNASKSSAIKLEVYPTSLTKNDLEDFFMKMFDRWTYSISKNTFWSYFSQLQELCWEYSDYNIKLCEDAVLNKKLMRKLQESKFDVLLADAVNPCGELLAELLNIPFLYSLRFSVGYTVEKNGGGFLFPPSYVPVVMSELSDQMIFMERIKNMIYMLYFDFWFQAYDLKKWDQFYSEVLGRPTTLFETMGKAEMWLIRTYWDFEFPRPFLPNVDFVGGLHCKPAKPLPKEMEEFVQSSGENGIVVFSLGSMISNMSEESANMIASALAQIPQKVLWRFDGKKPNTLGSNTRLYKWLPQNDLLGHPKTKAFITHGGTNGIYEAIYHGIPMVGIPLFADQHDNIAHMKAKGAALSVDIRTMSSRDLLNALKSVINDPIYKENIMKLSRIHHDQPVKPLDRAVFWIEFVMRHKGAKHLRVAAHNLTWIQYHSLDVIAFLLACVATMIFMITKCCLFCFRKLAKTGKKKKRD
The series is described as follows: Activity of human recombinant UGT2B17 expressed in insect cells assessed as enzyme mediated glucuronidation at 12.5 uM by LC-MS/MS method.

In series [2] the target is T2, UDP-glucuronosyltransferase 1A1 (Homo sapiens, UniProt P22309).
T2 sequence (P22309 whole entry): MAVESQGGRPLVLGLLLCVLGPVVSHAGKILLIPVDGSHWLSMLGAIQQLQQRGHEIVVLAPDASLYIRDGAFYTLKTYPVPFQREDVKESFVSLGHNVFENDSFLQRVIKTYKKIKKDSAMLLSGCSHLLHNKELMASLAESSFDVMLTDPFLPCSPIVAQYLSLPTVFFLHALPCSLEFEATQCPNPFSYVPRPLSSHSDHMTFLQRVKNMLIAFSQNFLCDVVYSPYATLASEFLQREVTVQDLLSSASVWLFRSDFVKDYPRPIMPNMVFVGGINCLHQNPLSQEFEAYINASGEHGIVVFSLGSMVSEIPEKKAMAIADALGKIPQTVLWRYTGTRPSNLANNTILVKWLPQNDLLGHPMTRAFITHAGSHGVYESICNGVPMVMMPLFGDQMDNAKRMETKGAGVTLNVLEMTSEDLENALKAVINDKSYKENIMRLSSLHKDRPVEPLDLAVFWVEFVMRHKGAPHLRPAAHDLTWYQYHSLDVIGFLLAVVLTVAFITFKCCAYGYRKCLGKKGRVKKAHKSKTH
Nature of the series: Activity of human recombinant UGT1A1 expressed in insect cells assessed as enzyme mediated glucuronidation in presence of 10 to 50 uM estradiol by LC-MS/MS method.

A short description of series [3]: Drug metabolism in human kidney microsomes assessed as intrinsic clearance for drug glucuronidation per mg tissue in absence of BSA by LC-MS/MS method.
The target of series [4] is T2, UDP-glucuronosyltransferase 1A1. Nature of the series: Activity of human recombinant UGT1A1 expressed in insect cells assessed as enzyme mediated glucuronidation at 500 uM by LC-MS/MS method.
The target in series [5] is T3, UDP-glucuronosyltransferase 1A7 (Homo sapiens, UniProt Q9HAW7).
T3 sequence (Q9HAW7 whole entry): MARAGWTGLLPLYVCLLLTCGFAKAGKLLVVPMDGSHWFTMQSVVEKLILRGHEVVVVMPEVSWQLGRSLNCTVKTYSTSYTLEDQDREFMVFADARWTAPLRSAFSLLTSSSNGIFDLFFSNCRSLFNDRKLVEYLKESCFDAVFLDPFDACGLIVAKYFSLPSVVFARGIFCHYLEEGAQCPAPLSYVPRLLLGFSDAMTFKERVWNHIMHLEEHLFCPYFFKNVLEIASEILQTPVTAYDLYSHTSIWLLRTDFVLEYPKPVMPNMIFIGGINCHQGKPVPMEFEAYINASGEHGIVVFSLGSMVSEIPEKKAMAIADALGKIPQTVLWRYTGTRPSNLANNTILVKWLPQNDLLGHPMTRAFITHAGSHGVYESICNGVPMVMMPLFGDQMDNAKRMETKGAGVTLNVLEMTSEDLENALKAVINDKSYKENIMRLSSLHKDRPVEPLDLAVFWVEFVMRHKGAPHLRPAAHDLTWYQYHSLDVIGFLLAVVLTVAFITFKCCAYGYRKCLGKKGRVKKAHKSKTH
Nature of the series: Activity of human recombinant UGT1A7 expressed in insect cells assessed as enzyme mediated glucuronidation at 500 uM by LC-MS/MS method.

Series [6] addresses T4, UDP-glucuronosyltransferase 1A9 (Homo sapiens, UniProt O60656).
T4 sequence (O60656 whole entry): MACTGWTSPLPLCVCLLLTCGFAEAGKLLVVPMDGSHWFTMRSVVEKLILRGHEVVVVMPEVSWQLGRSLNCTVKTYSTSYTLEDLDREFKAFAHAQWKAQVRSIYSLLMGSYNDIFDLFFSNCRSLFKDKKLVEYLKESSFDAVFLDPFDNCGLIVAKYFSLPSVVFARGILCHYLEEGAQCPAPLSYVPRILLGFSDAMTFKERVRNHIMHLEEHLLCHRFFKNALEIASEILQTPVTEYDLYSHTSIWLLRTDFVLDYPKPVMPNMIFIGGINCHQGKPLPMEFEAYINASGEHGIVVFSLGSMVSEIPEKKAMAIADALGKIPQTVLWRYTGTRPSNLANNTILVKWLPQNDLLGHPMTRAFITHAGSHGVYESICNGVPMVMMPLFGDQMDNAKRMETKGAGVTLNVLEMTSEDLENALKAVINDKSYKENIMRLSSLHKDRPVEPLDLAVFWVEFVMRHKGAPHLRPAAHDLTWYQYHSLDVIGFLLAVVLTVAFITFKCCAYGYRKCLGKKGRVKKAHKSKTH
Nature of the series: Activity of human recombinant UGT1A9 expressed in insect cells assessed as enzyme mediated glucuronidation at 500 uM by LC-MS/MS method.

For the compound `CC1=NN(c2ccccc2)C(=O)C1` [EDARAVONE], the Drug metabolism result is recorded as “metabolite_detected” in series [1]; “metabolite_not_detected” in series [2]; “metabolite_detected” in series [4]; “metabolite_detected” in series [5]; “metabolite_detected” in series [6]. In series [3], the CL(high) was 45.3 µL/min/mg. Also, in series [3], the CL(low) stood at 1.8 µL/min/mg.
